In data set [1] the test system is Enterococcus faecalis ATCC 29212. The data set is described as follows: MIC by microbroth dilution, EF. The class given is cell-based. From the text: (§1) The pharmaceutically acceptable compounds of the present invention are useful antibacterial agents having a good spectrum of activity in vitro and against standard Gram-positive organisms, which are used to screen for activity against pathogenic bacteria. […] The antibacterial spectrum and potency of a particular compound may be determined in a standard test system. The activity is described in terms of the minimum inhibitory concentration (MIC) determined by microbroth dilution technique as per NCCLS standards.
(§2) The minimum inhibitory concentrations (MIC's) of the compounds for the microorganisms listed in Table A were determined by preparing working solution for each compound of concentration of 128 μg/ml after dissolving it in DMSO. Two-fold serial dilution of the above solution was prepared in duplicates, using Mueller Hinton Broth, in 96 well Tissue culture plate with cover flat bottom wells to give a final volume of […] and concentration of compound ranging from 64 μg/ml-0.12 μg/ml. 30 μg/ml of Standard suspension of each organism which was prepared with turbidity equivalent to the 1:10 diluted 0.5 McFarland standard with density 10^7 CFU/ml, was added to each well to get approximately a density of 10^5 CFU/ml. These 96-well Tissue culture plate containing the test samples and positive and negative controls, were incubated at 37° C. for 16-18 hrs. The wells were visually inspected for growth and were also read at 630 nm by Automated Microplate Reader [(EL800) Trinity biotech.] and the MIC's were recorded as the lowest concentration of drug which inhibits the growth of bacteria.
(§3) The compounds of the present invention have useful activity against a variety of organisms. The in vitro activity of compounds of the present invention can be assessed by standard testing procedures such as the determination of minimum inhibitory concentration (MIC) by standard “Microdilution method” as described elsewhere in the specification. The pharmacokinetic profiling of the compounds were also done according to the protocol described in this specification. The activities of representative compounds of the present invention are given below in the following table.
EF: Enterococcus faecalis ATCC 29212

The test system of data set [2] is Staphylococus aureus ATCC 33591. As to the kind of experiment: MIC by microbroth dilution, SA. The class given is cell-based, Staphylococcus aureus. As to conditions: for MIC: Staphylococcus aureus.
Excerpt: as §1, §2, §3
SA: Staphylococus aureus ATCC 33591

For data set [3], the system named is Methicillin resistant Staphylococus aureus 653SP. As to the kind of experiment: MIC by microbroth dilution, first column headed SA (guide: MRSA). The format is cell-based, Staphylococcus aureus. The following applies: for MIC: Staphylococcus aureus, read-out: MIC (μg/ml) in vitro activity in gram positive organisms, SA.
Excerpt: as §1, §2, §3
MRSA: Methicillin resistant Staphylococus aureus 653SP

Data set [4] has as its system Staphylococcus epidermidis ATCC 12228. As to the kind of experiment: MIC by microbroth dilution, SE. The class given is cell-based.
Excerpt: as §1, §2, §3
SE: Staphylococcus epidermidis ATCC 12228

Setting [5] is: ATCC29212, Enterococcus faecalis ATCC 29212, Mueller Hinton Broth, 37° C., 16-18 hrs, read-out: MIC (μg/ml) in vitro activity in gram positive organisms, EF.
The mark [6] stands for this setting: ATCC33591, Staphylococus aureus ATCC 33591, Mueller Hinton Broth, 37° C., 16-18 hrs, read-out: MIC (μg/ml) in vitro activity in gram positive organisms, SA.
The mark [7] stands for this setting: SA, Mueller Hinton Broth, 37° C., 16-18 hrs.
Setting [8] is: ATCC12228, Staphylococcus epidermidis ATCC 12228, Mueller Hinton Broth, 37° C., 16-18 hrs, read-out: MIC (μg/ml) in vitro activity in gram positive organisms, SE.
The mark [9] stands for this setting: Enterococcus faecalis, ATCC29212, read-out: MIC (μg/ml) in vitro activity in gram positive organisms, EF.
Setting [10] is: ATCC33591, read-out: MIC (μg/ml) in vitro activity in gram positive organisms, SA.
[11] abbreviates: Staphylococcus epidermidis, ATCC12228, read-out: MIC (μg/ml) in vitro activity in gram positive organisms, SE.
The mark [12] stands for this setting: Enterococcus faecalis ATCC 29212, Mueller Hinton Broth, 37° C., 16-18 hrs.
[13] abbreviates: Staphylococus aureus ATCC 33591, Mueller Hinton Broth, 37° C., 16-18 hrs.

Converted amounts (≈) assume the structure as drawn. Where two headings read alike, the source gives them in different places.

With `NC(=S)NC[C@H]1CN(c2ccc(N3CCN(C(=O)/C=C/c4cccs4)CC3)c(F)c2)C(=O)O1` [Compound 123, (3/-N-[3-(3-Fluoro-4-{4-(thiophen-2-yl)-acryloyl]-piperazineyl]-phenyl)-2-oxo-oxazolidin-5-yl-methyl]thiourea], the melting point was in the range of 154 to 157 °C. The MIC in data set [1] (setting [5]) stood at 0.25 µg/mL (≈ 0.511 µM). Moreover, the MIC in data set [2] (setting [6]) amounted to 1 µg/mL (≈ 2.04 µM). In data set [3] (setting [7]), the MIC is 1 µg/mL (≈ 2.04 µM). The MIC in data set [4] (setting [8]) came out at 0.5 µg/mL (≈ 1.02 µM).

With `CC(=O)NC[C@H]1CN(c2ccc(N3CCOCC3)c(F)c2)C(=O)O1` [Linezolid, reference compound], the MIC in data set [1] (setting [5]) was 4 µg/mL (≈ 11.9 µM); in data set [2] (setting [6]), 4 µg/mL (≈ 11.9 µM); in data set [3] (setting [7]), 2 µg/mL (≈ 5.93 µM); in data set [4] (setting [8]) it was 4 µg/mL (≈ 11.9 µM).

`CC(=S)NC[C@H]1CN(c2ccc(N3CCN(C(=O)C=Cc4cccs4)CC3)c(F)c2)C(=O)O1` [Compound 70, (S)-N-[3-(3-Fluoro-4-{4-[3-(thiophen-2-yl)-acryloyl]-piperazinyl]-phenyl)-2-oxo-oxazolidin-5-ylmethyl]thioacetamide]: the MIC in data set [1] (setting [5]) came to 0.5 µg/mL (≈ 1.02 µM); in data set [2] (setting [6]), 0.5 µg/mL (≈ 1.02 µM); in data set [3] (setting [7]), 1 µg/mL (≈ 2.05 µM); in data set [4] (setting [8]), 2 µg/mL (≈ 4.09 µM).

As for `CC(=O)NC[C@H]1CN(c2ccc(N3CCN(C(=O)C=Cc4ccc(O)cc4)CC3)c(F)c2)C(=O)O1` [Compound 05, (S)-N-[3-(3-Fluoro-4-{4-[3-(4-hydroxyphenyl)-acryloyl]-piperazin-1-yl]-phenyl)-2-oxo-oxazolidin-5-ylmethyl]acetamide], the MIC came to 0.5 µg/mL (≈ 1.04 µM) in data set [1] (setting [9]), 2 µg/mL (≈ 4.14 µM) in data set [2] (setting [10]), 1 µg/mL (≈ 2.07 µM) in data set [3] and 0.5 µg/mL (≈ 1.04 µM) in data set [4] (setting [11]).

In the case of “(S)-N-[3-{4-(4-(3-Benzo[1,3]-dioxol-5-yl-acryloyl)-piperazin-1-yl}-3-fluorophenyl]-2-oxo-oxazolidin-5-yl methyl thiourea [Compound 125]”, in data set [1] (setting [12]), the “MIC (μg/ml) in vitro activity in gram positive organisms, EF” value (“MIC (μg/ml) in vitro activity … EF” below) came out at 0.5 µg/mL. Further, the “MIC (μg/ml) in vitro activity in gram positive organisms, SA” value (from here on “MIC (μg/ml) in vitro activity … SA”) in data set [2] (setting [13]) stood at 4 µg/mL; in data set [3] (setting [7]) it was 1 µg/mL.

`CC(=O)NC[C@H]1CN(c2ccc(N3CCN(C(=O)CO)CC3)c(F)c2)C(=O)O1` [Eperzolid, reference compound]: the “MIC (μg/ml) in vitro activity … EF” value in data set [1] (setting [12]) was 2 µg/mL (≈ 5.07 µM). For the same compound, the “MIC (μg/ml) in vitro activity … SA” value in data set [2] (setting [13]) came to 4 µg/mL (≈ 10.1 µM); in data set [3] (setting [7]) it was 2 µg/mL (≈ 5.07 µM).

With `NC(=S)NC[C@H]1CN(c2ccc(N3CCN(C(=O)C=Cc4c[nH]c5ccccc45)CC3)c(F)c2)C(=O)O1` [Compound 126, (S)-N-[3-(3-Fluoro-4-{4-[3-(1H-indol-3-yl)-acryloyl]-piperazin-1-yl]-phenyl)-2-oxo-oxazolidin-5-ylmethyl]thiourea], the MIC in data set [1] (setting [5]) was determined as 1 µg/mL (≈ 1.91 µM); in data set [2] (setting [6]) it was 1 µg/mL (≈ 1.91 µM); in data set [3] (setting [7]), 1 µg/mL (≈ 1.91 µM); in data set [4] (setting [8]), 0.5 µg/mL (≈ 0.957 µM).

With `NC(=S)NC[C@H]1CN(c2ccc(N3CCN(C(=O)C=Cc4ccco4)CC3)c(F)c2)C(=O)O1` [Compound 127, (S)-N-[3-(3-Fluoro-4-{4-[3-(furan-2-yl)-acryloyl]-piperazin-1-yl]-phenyl)-2-oxo-oxazolidin-5-ylmethyl]thiourea], the MIC stood at 1 µg/mL (≈ 2.11 µM) in data set [1] (setting [5]), 2 µg/mL (≈ 4.22 µM) in data set [2] (setting [6]), 2 µg/mL (≈ 4.22 µM) in data set [3] (setting [7]) and 0.5 µg/mL (≈ 1.06 µM) in data set [4] (setting [8]).

For “(S)-N-[3-(3-Fluoro-4-{4-[3-(4-hydroxyphenyl)-acryloyl]-piperazin-1-yl]-phenyl)-2-oxo-oxazolidin-5-yl methyl thiourea [Compound 124]”, the “MIC (μg/ml) in vitro activity … EF” value in data set [1] (setting [12]) stood at 1 µg/mL. The “MIC (μg/ml) in vitro activity … SA” value in data set [2] (setting [13]) and in data set [3] (setting [7]) was 1 µg/mL each time.

The compound `CC(=O)NC[C@H]1CN(c2ccc(N3CCN(C/C=C/c4ccccc4)CC3)c(F)c2)C(=O)O1` (stereo in doubt) yielded a melting point of 134 to 136 °C.

As to `CC(=O)NC[C@H]1CN(c2ccc(N3CCN(C(=O)/C=C/c4cccs4)CC3)c(F)c2)C(=O)O1` [Compound 01], the melting point lay in the range of 223 to 225 °C. For the same compound, in data set [1] (setting [5]), the MIC was 1 µg/mL (≈ 2.12 µM). In addition, the MIC in data set [3] (setting [7]) was found to be 0.5 µg/mL (≈ 1.06 µM). Besides, the MIC in data set [4] (setting [8]) came out at 1 µg/mL (≈ 2.12 µM).

Take `CC(=S)NC[C@H]1CN(c2ccc(N3CCN(C(=O)C=Cc4ccc(O)cc4)CC3)c(F)c2)C(=O)O1` [Compound 64, (S)-N-[3-(3-Fluoro-4-{4-[3-(4-hydroxyphenyl)-acryloyl]-piperazin-1-yl]-phenyl)-2-oxo-oxazolidin-5-ylmethyl]thioacetamide]: the MIC in data set [1] (setting [9]) is 0.25 µg/mL (≈ 0.501 µM); in data set [2] (setting [10]) it was 0.25 µg/mL (≈ 0.501 µM); in data set [3] it was 0.5 µg/mL (≈ 1 µM); in data set [4] (setting [11]), 0.25 µg/mL (≈ 0.501 µM).

`CC(=S)NC[C@H]1CN(c2ccc(N3CCN(C(=O)C=Cc4ccco4)CC3)c(F)c2)C(=O)O1` [Compound 66, (S)-N-[3-(3-Fluoro-4-{4-[3-(furan-2-yl)-acryloyl]-piperazin-1-yl]-phenyl)-2-oxo-oxazolidin-5-ylmethyl]thioacetamide]: the MIC in data set [1] (setting [5]) came out at 0.5 µg/mL (≈ 1.06 µM); in data set [2] (setting [6]), 0.5 µg/mL (≈ 1.06 µM); in data set [3] (setting [7]), 1 µg/mL (≈ 2.12 µM); in data set [4] (setting [8]) it was 0.5 µg/mL (≈ 1.06 µM).
